19 compounds from US8455534B2, “Estrogen receptor modulators and uses thereof” (Aragon Pharmaceuticals, Inc., priority 2010, dated 2013) can be followed below.

Structures are written as SMILES. Bounds are passed on as bounds.

In test [1] the target is T1, ER-α (Homo sapiens, UniProt P03372).
T1 sequence (P03372 1-595): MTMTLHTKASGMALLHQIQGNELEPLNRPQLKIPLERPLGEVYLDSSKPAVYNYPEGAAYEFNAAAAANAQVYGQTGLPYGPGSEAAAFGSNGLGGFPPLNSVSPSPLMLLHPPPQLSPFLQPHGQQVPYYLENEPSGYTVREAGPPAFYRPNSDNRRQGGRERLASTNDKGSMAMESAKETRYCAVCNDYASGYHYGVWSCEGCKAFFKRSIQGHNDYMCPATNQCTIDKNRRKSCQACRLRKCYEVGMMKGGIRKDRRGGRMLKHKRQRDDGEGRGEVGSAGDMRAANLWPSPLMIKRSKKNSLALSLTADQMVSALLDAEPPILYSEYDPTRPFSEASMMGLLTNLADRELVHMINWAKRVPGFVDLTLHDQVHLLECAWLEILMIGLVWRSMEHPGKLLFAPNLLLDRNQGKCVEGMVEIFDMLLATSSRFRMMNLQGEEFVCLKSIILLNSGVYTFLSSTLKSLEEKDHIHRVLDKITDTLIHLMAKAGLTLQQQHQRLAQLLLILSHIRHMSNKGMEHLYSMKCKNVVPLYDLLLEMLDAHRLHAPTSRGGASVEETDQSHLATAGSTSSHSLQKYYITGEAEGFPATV
In words: Breast Cancer Cell ER-α In Cell Western Assay (SP1). As to conditions: MCF-7 cells, SP1 antibody, 4 or 24 hr post compound addition; for Emax: MCF7, read-out: ER-α In Cell Western Assay (SP1) Max Response; for DC50: read-out: ER-α In Cell Western Assay (SP1) IC50. The class given is cell-based. An outline of the steps: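 ER-α protein levels measured by in-cell western with SP1 antibody, ratioed to DRAQ5 DNA signal and given as percent of untreated controls. Compounds added at 0.3–0.000003 μM final (eleven semilog points) to adherent MCF-7 cells in stripped serum; exposure 4 or 24 h before fixation.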

The subject of test [2] is MCF-7 cells. Briefly: Breast Cancer Cell Viability Assay (MCF-7, CellTiter-Glo). As to conditions: 5 days' compound exposure; for IC50: Homo sapiens, MCF7, 120 h. The format is cell-based. An outline of the steps:
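MCF-7 cells, 320 per well in RPMI with 10% FBS and 20 mM HEPES, adhered overnight, then exposed 5 days to an eleven-point semilog dilution (final 0.3-0.000003 μM). CellTiter-Glo luminescence read; % viability = (sample − cell-free background)/(untreated − background) × 100.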
On the technique in general: ATP-based viability assays read luminescence as a measure of living cells.

With `CC/C(=C(/c1ccc(/C=C/C(=O)O)cc1)c1ccc2[nH]ncc2c1F)c1ccc(Cl)cc1C` [Compound 70, (E)-3-(4-((E)-2-(4-Chloro-2-methylphenyl)-1-(4-fluoro-1H-indazol-5-yl)but-1-en-1-yl)phenyl)acrylic acid], in test [1], the Emax was at least 40% and the DC50 was at most 100 nM. Moreover, in test [2], the “MCF7 Viability Assay Max Response” value is reported as “++ (++ = a single % value ≧ 40%)” and the IC50 – broadly, the concentration that gives 50% inhibition – was at most 100 nM.
Regarding `CC/C(=C(\c1ccc2[nH]ncc2c1)c1ccc(/C=C/C(=O)O)cc1F)c1ccccc1` [Compound 105, (E)-3-(4-((Z)-1-(1H-Indazol-5-yl)-2-phenylbut-1-en-1-yl)-3-fluorophenyl)acrylic acid], in test [1], the Emax is at least 40% and the DC50 is at most 100 nM. In test [2], the “MCF7 Viability Assay Max Response” value is recorded as “++ (++ = a single % value ≧ 40%)” and the IC50 was at most 100 nM.
As to `CC/C(=C(/c1ccc(/C=C/C(=O)O)cc1)c1cc(C)c2[nH]ncc2c1)c1ccccc1` [Compound 37, (E)-3-(4-((E)-1-(7-Methyl-1H-indazol-5-yl)-2-phenylbut-1-en-1-yl)phenyl)acrylic acid], in test [1], the Emax was at least 40% and the DC50 is at most 100 nM. In test [2], the “MCF7 Viability Assay Max Response” value is recorded as “++ (++ = a single % value ≧ 40%)” and the IC50 is at most 100 nM.
Regarding `O=C(O)/C=C/c1ccc(/C(=C(/CC2CCCC2)c2ccccc2)c2ccc3[nH]ncc3c2)cc1` [Compound 60, (E)-3-(4-((E)-3-Cyclopentyl-1-(1H-indazol-5-yl)-2-phenylprop-1-en-1-yl)phenyl)acrylic acid], in test [1], the Emax is at least 40% and the DC50 is at most 100 nM. Moreover, in test [2], the “MCF7 Viability Assay Max Response” value is given as “++ (++ = a single % value ≧ 40%)” and the IC50 is at most 100 nM.
As for `O=C(O)/C=C/c1ccc(/C(=C(\c2ccccc2)C(F)(F)F)c2ccc3[nH]ncc3c2)cc1` [Compound 68, (E)-3-(4-((Z)-3,3,3-Trifluoro-1-(1H-indazol-5-yl)-2-phenylprop-1-en-1-yl)phenyl)acrylic acid], in test [1], the Emax is at least 40% and the DC50 was at most 100 nM. In test [2], the “MCF7 Viability Assay Max Response” value is listed as “++ (++ = a single % value ≧ 40%)” and the IC50 was at most 100 nM.
With `CC/C(=C(/c1ccc(/C=C/C(=O)O)cc1)c1ccc2[nH]ncc2c1)c1cc(C#N)ccc1C` [Compound 143, (E)-3-(4-((E)-2-(5-Cyano-2-methylphenyl)-1-(1H-indazol-5-yl)but-1-en-1-yl)phenyl)acrylic acid], in test [1], the Emax was at least 40% and the DC50 is at most 100 nM. Moreover, in test [2], the “MCF7 Viability Assay Max Response” value is reported as “++ (++ = a single % value ≧ 40%)” and the IC50 was over 100 nM.
Turning to `CC/C(=C(\c1ccc2[nH]ncc2c1)c1ccc(/C=C/C(=O)O)cc1OC)c1ccccc1` [Compound 108, (E)-3-(4-((Z)-1-(1H-Indazol-5-yl)-2-phenylbut-1-en-1-yl)-3-methoxyphenyl)acrylic acid], in test [1], the Emax was at least 40%. Also, in test [2], the “MCF7 Viability Assay Max Response” value is on record as “++ (++ = a single % value ≧ 40%)” and the IC50 was at most 100 nM.
Turning to `Cc1cc(Cl)ccc1/C(=C(\c1ccc(/C=C/C(=O)O)cc1)c1ccc2[nH]ncc2c1)C1CC1` [Compound 126, (E)-3-(4-((E)-2-(4-Chloro-2-methylphenyl)-2-cyclopropyl-1-(1H-indazol-5-yl)vinyl)phenyl)acrylic acid], in test [1], the Emax was at least 40% and the DC50 is at most 100 nM. Further, in test [2], the “MCF7 Viability Assay Max Response” value is “++ (++ = a single % value ≧ 40%)” and the IC50 is at most 100 nM.
`CC/C(=C(/c1ccc(/C=C/C(=O)O)c(C(F)(F)F)c1)c1ccc2[nH]ncc2c1)c1ccccc1` [Compound 107, (E)-3-(4-((Z)-1-(1H-Indazol-5-yl)-2-phenylbut-1-en-1-yl)-2-(trifluoromethyl)phenyl)acrylic acid]: in test [1], the Emax is at least 40% and the DC50 was at most 100 nM. Further, in test [2], the “MCF7 Viability Assay Max Response” value is “++ (++ = a single % value ≧ 40%)” and the IC50 is over 100 nM.
Regarding `CC/C(=C(/c1ccc(/C=C/C(=O)O)cc1)c1ccc2[nH]ncc2c1)c1ccc(S(C)(=O)=O)cc1F` [Compound 131, (E)-3-(4-((E)-2-(2-Fluoro-4-(methylsulfonyl)phenyl)-1-(1H-indazol-5-yl)but-1-en-1-yl)phenyl)acrylic acid], in test [1], the Emax is at least 40% and the DC50 is over 100 nM. Besides, in test [2], the “MCF7 Viability Assay Max Response” value is given as “++ (++ = a single % value ≧ 40%)” and the IC50 was over 100 nM.
On to `CC/C(=C(/c1ccc(/C=C/C(=O)O)cc1)c1ccc2[nH]ncc2c1F)c1ccc(F)cc1Cl` [Compound 61, (E)-3-(4-((E)-2-(2-Chloro-4-fluorophenyl)-1-(4-fluoro-1H-indazol-5-yl)but-1-en-1-yl)phenyl)acrylic acid], for which, in test [1], the Emax was at least 40% and the DC50 is at most 100 nM. Further, in test [2], the “MCF7 Viability Assay Max Response” value is recorded as “++ (++ = a single % value ≧ 40%)” and the IC50 is at most 100 nM.
Regarding `[2H]C([2H])([2H])C/C(=C(/c1ccc(/C=C/C(=O)O)cc1)c1ccc2[nH]ncc2c1)c1ccccc1` [Compound 28, (E)-3-(4-((E)-4,4,4-Trideutero-1-(1H-indazol-5-yl)-2-phenylbut-1-en-1-yl)phenyl)acrylic acid], the Emax in test [1] was at least 40%. In test [2], the “MCF7 Viability Assay Max Response” value is recorded as “++ (++ = a single % value ≧ 40%)” and the IC50 is at most 100 nM.
Turning to `CC(C)C/C(=C(/c1ccc(/C=C/C(=O)O)cc1)c1ccc2[nH]ncc2c1)c1ccc(F)cc1Cl` [Compound 63, (E)-3-(4-((E)-2-(2-Chloro-4-fluorophenyl)-1-(1H-indazol-5-yl)-4-methylpent-1-en-1-yl)phenyl)acrylic acid], in test [1], the Emax was at least 40% and the DC50 was at most 100 nM. Besides, in test [2], the “MCF7 Viability Assay Max Response” value was “++ (++ = a single % value ≧ 40%)” and the IC50 is at most 100 nM.
Take `O=C(O)/C=C/c1ccc(/C(=C(\c2ccc(Cl)cc2Cl)C2CC2)c2ccc3[nH]ncc3c2)cc1` [Compound 125, (E)-3-(4-((E)-2-Cyclopropyl-2-(2,4-dichlorophenyl)-1-(1H-indazol-5-yl)vinyl)phenyl)acrylic acid]: in test [1], the Emax was at least 40% and the DC50 is at most 100 nM. Also, in test [2], the “MCF7 Viability Assay Max Response” value is given as “++ (++ = a single % value ≧ 40%)” and the IC50 is at most 100 nM.
With `CC/C(=C(/c1ccc(/C=C/C(=O)O)cc1)c1ccc2[nH]nc(C)c2c1)c1ccccc1` [Compound 39, (E)-3-(4-((E)-1-(3-Methyl-1H-indazol-5-yl)-2-phenylbut-1-en-1-yl)phenyl)acrylic acid], in test [1], the Emax was at least 40% and the DC50 is over 100 nM. In addition, in test [2], the “MCF7 Viability Assay Max Response” value is on record as “++ (++ = a single % value ≧ 40%)” and the half-maximal inhibitory concentration (IC50) is over 100 nM.
Consider `COC/C(=C(/c1ccc(/C=C/C(=O)O)cc1)c1ccc2[nH]ncc2c1)c1ccccc1` [Compound 48, (E)-3-(4-((Z)-1-(1H-Indazol-5-yl)-3-methoxy-2-phenylprop-1-en-1-yl)phenyl)acrylic acid], for which, in test [1], the Emax is at least 40% and the DC50 is at most 100 nM. Also, in test [2], the “MCF7 Viability Assay Max Response” value is on record as “++ (++ = a single % value ≧ 40%)” and the concentration for half-maximal inhibition (IC50) is at most 100 nM.
Regarding `C/C(=C(/c1ccc(/C=C/C(=O)O)cc1)c1ccc2[nH]ncc2c1)c1ccccc1` [Compound 42, (E)-3-(4-((E)-1-(1H-Indazol-5-yl)-2-phenylprop-1-en-1-yl)phenyl)acrylic acid], in test [1], the Emax was at least 40% and the DC50 was at most 100 nM. For the same compound, in test [2], the “MCF7 Viability Assay Max Response” value is “++ (++ = a single % value ≧ 40%)” and the IC50 was at most 100 nM.
As to `CC/C(=C(/c1ccc(/C=C/C(=O)O)cc1)c1ccc2[nH]ncc2c1)c1ccccc1C` [Compound 9, (E)-3-(4-((E)-1-(1H-Indazol-5-yl)-2-(o-tolyl)but-1-en-1-yl)phenyl)acrylic acid], the Emax in test [1] was at least 40%. In test [2], the “MCF7 Viability Assay Max Response” value was “++ (++ = a single % value ≧ 40%)” and the IC50 is at most 100 nM.
As to `O=C(O)/C=C/c1ccc(/C(=C(\c2ccc(F)cc2Cl)C2CCC2)c2ccc3[nH]nc(F)c3c2)cc1` [Compound 89, (E)-3-(4-((E)-2-(2-Chloro-4-fluorophenyl)-2-cyclobutyl-1-(3-fluoro-1H-indazol-5-yl)vinyl)phenyl)acrylic acid], in test [1], the Emax was at least 40% and the DC50 was at most 100 nM. Besides, in test [2], the “MCF7 Viability Assay Max Response” value was “++ (++ = a single % value ≧ 40%)” and the IC50 is at most 100 nM.
